The values below come from patent US20120225889A1, “USE OF MACROCYCLIC LACTONE DERIVATIVES FOR THE TREATMENT OF INFLAMMATORY DISORDERS” (PIRAMAL LIFE SCIENCES LIMITED, priority 2010, published 2012).

Where two headings read alike, the source gives them in different places.

Assay [1] concerns TNF-α. Briefly: hPBMC membrane-monocyte contact bioassay: TNF-α. The assay is classed as cell-based, human. Conditions: activated hPBMC membranes, 24 h. The text has this:
The assay was designed as in reference, Immunology Letters, 117, 114-118, (2008), the disclosure of which is incorporated by reference for the teaching of the assay. Activated T cell contact-mediated monocyte activation, leading to the production of proinflammatory cytokines (e.g., TNF-α, IL-6), contributes to the pathogenesis of chronic inflammatory diseases including rheumatoid arthritis.
6-well plates (Nunc, USA) were coated with Goat anti-Mouse IgG, Fc (Chemicon, USA) at a concentration of 16.5 μL/mL in coating buffer ([…] NaHCO3, 3.56 g Na2CO3, pH 9.5).
The plates were incubated overnight at 4° C. under sterile conditions. […]
Following incubation, hPBMCs in separate wells of the 6-well plate were harvested, pooled together, and centrifuged. […] The pellet of hPBMC membranes was resuspended in lysis buffer (Sigma, USA) and the protein concentration was determined by the method of Bradford (Sigma, USA).
100 μL monocytes per well at 5×10^5 cells/mL were added to the 96-well plate (Nunc, USA) and cultured for 48 h at 37° C. […] Supernatants were collected after 24 h and TNF-α and IL-6 production was measured using OptiEIA ELISA sets, (BD BioSciences, USA). […]

Assay [2] relates to hPBMCs. Nature of the assay: Lymphocyte proliferation assay (T-cell proliferation of normal hPBMCs). Type of assay: cell-based. Conditions: Homo sapiens. The source says:
The assay method was designed as in references, The Journal of Immunology, 153, 1-9, (1994), and Clinical and Diagnostic Laboratory Immunology, 7, 687-692, (2000), the disclosure of which is incorporated by reference for the teaching of the assay.
hPBMCs were obtained from healthy donors by centrifugation of heparinized venous blood over Ficoll/Hypaque solution (Histopaque-1077, Sigma, USA). Isolated hPBMCs were suspended in RPMI 1640 culture medium supplemented with 10% FBS and seeded at a density of 50,000 cells/well in a 96-well plate (Nunc, USA). The cells were incubated at 37° C., 5% CO2 for a period of 24 h. These cells were used for the lymphocyte proliferation as well as cytokine release assay.
The plated cells were treated with different concentrations of the test compound (prepared as 20 mM stock in DMSO and diluted with DMSO to achieve the following final concentrations in the assay: 100, 10, 1, 0.1, 0.01, 0.001 and 0.0001 μM) and were incubated for 30 min. The cells were then stimulated with 5 ng/mL PMA (Sigma, USA, prepared as 100 μg/mL stock in RPMI and was diluted to 5 ng/mL) and 5 μg/mL PHA (Sigma, USA, prepared as a 1 mg/mL stock in RPMI). The plates were incubated at 37° C., 5% CO2 for 48 h. The cells were treated overnight with 0.1 μCi of tritiated thymidine per well (obtained from BARC, India; prepared as stock of 1 mCi/mL) and was diluted in KRPH buffer to 10 μCi/mL and […] and was added per well to obtain a final concentration 0.1 μCi/well) and at the end of 48 h, the anti-proliferative effect of the compound was measured using the following formula: […]
Controls consisted of hPBMCs with PHA and PMA (Stimulated), hPBMCs with RPMI (Un-stimulated), hPBMCs with FK506 (positive control, Sigma, USA, prepared as 20 mM stock in DMSO and diluted with DMSO to achieve the following final concentrations in the assay: 100, 10, 1, 0.1, 0.01, 0.001 and 0.0001 μM).

Consider `C/C=C/C(O)C(C)/C=C/C(=N\O)C(C)C(O)C(C)C1OC(=O)/C(OC)=C/C(C)=C/C(C)C(O)C(CC)C(O)C(C)C/C(C)=C/C=C/C1OC` (stereo not drawn) [Compound of example 7, (3Z,5E,13E,15E)-18-((5Z,6E,10E)-3,9-Dihydroxy-5-(hydroxymino)-4,8-dimethyldodeca-6,10-dien-2-yl)-9-ethyl-8,10-dihydroxy-3,17-dimethoxy-5,7,11,13-tetramethyl oxacyclooctadeca-3,5,13,15-tetraen-2-one], for which the “inhibition of TNF-α production from monocytes” value in assay [1] is “did not inhibit”. Also, the IC50 in assay [2] (read-out: Stimulated hPBMC's IC50 (inhibition of cell proliferation)) turned out to be 3 nM; in assay [2] (read-out: Unstimulated hPBMC's IC50 (inhibition of cell proliferation)), 5000 nM.
